Where a name gives a salt, the structure may show the parent alone. Residues, ends and D or L forms follow the SMILES beside them.
Key:
[1] = target: Hepsin (Homo sapiens, UniProt P05981); test: Hepsin enzyme inhibition (published assays); format: biochemical
[2] = target: T1, HGFA (Homo sapiens, UniProt Q04756); test: HGFA enzyme inhibition (published assays); format: biochemical
T1 sequence (Q04756 373-655): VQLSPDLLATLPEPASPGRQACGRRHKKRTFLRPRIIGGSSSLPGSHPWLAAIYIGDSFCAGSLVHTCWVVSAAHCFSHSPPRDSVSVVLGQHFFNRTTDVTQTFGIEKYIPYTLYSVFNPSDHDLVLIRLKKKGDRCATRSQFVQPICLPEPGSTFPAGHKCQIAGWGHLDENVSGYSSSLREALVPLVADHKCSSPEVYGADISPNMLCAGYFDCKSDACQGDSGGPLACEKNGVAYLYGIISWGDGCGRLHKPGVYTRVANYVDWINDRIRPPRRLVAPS

[3] = target: Thrombin (Homo sapiens, UniProt P00734); test: Thrombin enzyme inhibition (published assays); format: biochemical
[4] = target: T2, Matriptase (Homo sapiens, UniProt Q9Y5Y6); test: Matriptase enzyme inhibition (published assays); format: biochemical
T2 sequence (Q9Y5Y6 1-855): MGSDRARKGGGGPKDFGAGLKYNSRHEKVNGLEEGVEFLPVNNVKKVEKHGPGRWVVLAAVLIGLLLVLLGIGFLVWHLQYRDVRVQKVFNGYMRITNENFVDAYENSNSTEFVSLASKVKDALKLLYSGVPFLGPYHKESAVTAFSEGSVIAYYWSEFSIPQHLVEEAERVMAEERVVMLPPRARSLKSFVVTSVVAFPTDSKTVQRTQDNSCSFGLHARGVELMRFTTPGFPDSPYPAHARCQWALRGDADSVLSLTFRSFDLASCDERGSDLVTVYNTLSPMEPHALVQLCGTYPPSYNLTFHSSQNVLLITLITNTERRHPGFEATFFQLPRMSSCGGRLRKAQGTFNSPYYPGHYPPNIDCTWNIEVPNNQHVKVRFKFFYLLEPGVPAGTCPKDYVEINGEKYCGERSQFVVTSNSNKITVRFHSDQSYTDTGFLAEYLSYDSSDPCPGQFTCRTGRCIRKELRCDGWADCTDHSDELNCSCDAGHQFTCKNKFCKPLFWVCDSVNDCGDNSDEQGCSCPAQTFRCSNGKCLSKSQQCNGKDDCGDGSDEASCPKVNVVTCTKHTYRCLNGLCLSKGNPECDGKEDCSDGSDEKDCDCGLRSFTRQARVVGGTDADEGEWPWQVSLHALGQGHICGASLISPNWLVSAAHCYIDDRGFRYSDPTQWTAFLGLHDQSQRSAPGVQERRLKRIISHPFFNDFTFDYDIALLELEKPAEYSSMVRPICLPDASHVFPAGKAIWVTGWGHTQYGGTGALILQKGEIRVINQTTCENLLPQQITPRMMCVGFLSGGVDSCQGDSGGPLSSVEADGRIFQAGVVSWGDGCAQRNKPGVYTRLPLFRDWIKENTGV

[5] = target: Factor Xa (Homo sapiens, UniProt P00742); test: Factor Xa enzyme inhibition (published assays); format: biochemical
Factor Xa, sequence (P00742 235-488 limits assumed): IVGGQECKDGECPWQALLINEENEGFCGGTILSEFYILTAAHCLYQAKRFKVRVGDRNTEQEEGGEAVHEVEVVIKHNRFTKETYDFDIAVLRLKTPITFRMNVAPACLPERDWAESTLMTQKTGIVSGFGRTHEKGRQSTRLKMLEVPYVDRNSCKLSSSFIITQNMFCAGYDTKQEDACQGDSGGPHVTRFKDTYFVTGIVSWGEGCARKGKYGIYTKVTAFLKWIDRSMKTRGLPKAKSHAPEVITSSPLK
Factor Xa, sequence (P00742 41-179 partner limits assumed): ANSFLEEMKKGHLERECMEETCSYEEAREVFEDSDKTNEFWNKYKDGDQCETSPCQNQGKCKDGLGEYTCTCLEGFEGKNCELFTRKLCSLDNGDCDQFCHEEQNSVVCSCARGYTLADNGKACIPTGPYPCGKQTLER

[6] = tested on: VSV-SARS-CoV-2-Spike protein Pseudotype virus; test: microbe, parasite or virus in culture; format: cell-based; conditions: read-out: VSV-SARS-CoV-2 Calu-3 EC50
[7] = target: Cathepsin L (Homo sapiens, UniProt P07711); test: Protease profiling panel, 10-dose IC50; format: biochemical
Cathepsin L, sequence (P07711 114-333, species assumed): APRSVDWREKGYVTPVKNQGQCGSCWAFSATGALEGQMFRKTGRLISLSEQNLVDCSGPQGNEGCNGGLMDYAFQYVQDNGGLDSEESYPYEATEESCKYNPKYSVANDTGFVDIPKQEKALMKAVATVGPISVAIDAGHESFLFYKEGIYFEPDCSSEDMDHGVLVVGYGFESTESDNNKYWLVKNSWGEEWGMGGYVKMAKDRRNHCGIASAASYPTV

[8] = target: Cathepsin S (Homo sapiens, UniProt P25774); test: Protease profiling panel, 10-dose IC50; format: biochemical
[9] = target: Cathepsin H (Homo sapiens, UniProt P09668); test: Protease profiling panel, 10-dose IC50; format: biochemical
[10] = target: Cathepsin B (Homo sapiens, UniProt P07858); test: Protease profiling panel, 10-dose IC50; format: biochemical
[11] = target: Papain (Carica papaya, UniProt P00784); test: Protease profiling panel, 10-dose IC50; format: biochemical
[12] = target: Cathepsin C (Homo sapiens, UniProt P53634); test: Protease profiling panel, 10-dose IC50; format: biochemical
[13] = target: Calpain 1 (Homo sapiens, UniProt P07384); test: Protease profiling panel, 10-dose IC50; format: biochemical
Calpain 1, sequence (P07384 whole entry): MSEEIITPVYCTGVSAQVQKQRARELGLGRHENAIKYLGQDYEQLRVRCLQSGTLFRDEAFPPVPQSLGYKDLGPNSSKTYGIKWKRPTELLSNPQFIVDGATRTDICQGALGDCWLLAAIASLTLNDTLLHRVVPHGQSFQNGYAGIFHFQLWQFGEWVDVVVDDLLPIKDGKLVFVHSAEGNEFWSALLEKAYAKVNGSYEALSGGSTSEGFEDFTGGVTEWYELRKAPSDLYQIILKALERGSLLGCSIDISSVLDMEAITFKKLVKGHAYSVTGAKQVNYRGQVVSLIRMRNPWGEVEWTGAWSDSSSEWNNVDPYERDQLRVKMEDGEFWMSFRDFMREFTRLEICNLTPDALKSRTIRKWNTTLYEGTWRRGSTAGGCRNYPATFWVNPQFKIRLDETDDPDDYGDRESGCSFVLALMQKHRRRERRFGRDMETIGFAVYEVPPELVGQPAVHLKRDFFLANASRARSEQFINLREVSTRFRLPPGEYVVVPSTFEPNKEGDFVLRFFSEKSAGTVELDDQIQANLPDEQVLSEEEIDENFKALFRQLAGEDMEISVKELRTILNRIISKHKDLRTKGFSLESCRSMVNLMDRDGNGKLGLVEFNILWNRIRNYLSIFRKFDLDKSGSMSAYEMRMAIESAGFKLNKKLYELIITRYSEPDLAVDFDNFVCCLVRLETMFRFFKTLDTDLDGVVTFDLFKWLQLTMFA
Calpain 1, sequence (P04632 whole entry partner): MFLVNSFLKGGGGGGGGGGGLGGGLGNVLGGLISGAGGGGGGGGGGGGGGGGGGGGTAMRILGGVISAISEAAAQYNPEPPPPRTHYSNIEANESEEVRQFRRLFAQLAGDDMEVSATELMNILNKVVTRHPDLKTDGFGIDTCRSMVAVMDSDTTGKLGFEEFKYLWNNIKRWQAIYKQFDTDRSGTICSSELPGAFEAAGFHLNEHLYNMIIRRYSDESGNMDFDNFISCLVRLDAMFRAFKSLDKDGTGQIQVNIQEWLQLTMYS

[14] = target: Cathepsin V (Homo sapiens, UniProt O60911); test: Protease profiling panel, 10-dose IC50; format: biochemical
Cathepsin V, sequence (O60911 114-334, species assumed): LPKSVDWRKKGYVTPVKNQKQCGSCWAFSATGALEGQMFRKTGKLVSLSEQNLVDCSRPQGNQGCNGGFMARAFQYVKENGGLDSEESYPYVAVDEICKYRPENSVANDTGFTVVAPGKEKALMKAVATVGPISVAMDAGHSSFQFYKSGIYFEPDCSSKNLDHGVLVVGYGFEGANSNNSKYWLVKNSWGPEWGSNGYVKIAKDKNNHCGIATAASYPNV

[15] = target: Caspase 7 (Homo sapiens, UniProt P55210); test: Protease profiling panel, 10-dose IC50; format: biochemical
[16] = target: Caspase 6 (Homo sapiens, UniProt P55212); test: Protease profiling panel, 10-dose IC50; format: biochemical
Caspase 6, sequence (P55212 24-293, species assumed): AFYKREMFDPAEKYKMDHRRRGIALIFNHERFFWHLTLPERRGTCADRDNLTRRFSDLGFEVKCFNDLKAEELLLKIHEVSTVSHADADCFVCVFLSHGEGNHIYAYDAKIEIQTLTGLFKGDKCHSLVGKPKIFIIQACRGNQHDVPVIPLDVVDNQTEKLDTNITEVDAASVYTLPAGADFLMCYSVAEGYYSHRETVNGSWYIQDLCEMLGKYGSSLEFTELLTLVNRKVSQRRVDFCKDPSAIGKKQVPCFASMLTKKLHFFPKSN

[17] = target: Thrombin a (Homo sapiens, UniProt P00734); test: Protease profiling panel, 10-dose IC50; format: biochemical
[18] = target: Kallikrein 12 (Homo sapiens, UniProt Q9UKR0); test: Protease profiling panel, 10-dose IC50; format: biochemical
Kallikrein 12, sequence (Q9UKR0 18-248, species assumed): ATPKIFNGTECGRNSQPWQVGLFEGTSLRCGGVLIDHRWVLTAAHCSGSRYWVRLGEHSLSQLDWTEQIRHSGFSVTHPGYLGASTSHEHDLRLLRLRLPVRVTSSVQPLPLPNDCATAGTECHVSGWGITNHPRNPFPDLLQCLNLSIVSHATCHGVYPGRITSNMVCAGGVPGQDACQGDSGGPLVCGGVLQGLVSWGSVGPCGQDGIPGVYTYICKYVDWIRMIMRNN

[19] = target: Kallikrein 13 (Homo sapiens, UniProt Q9UKR3); test: Protease profiling panel, 10-dose IC50; format: biochemical
Kallikrein 13, sequence (Q9UKR3 17-277, species assumed): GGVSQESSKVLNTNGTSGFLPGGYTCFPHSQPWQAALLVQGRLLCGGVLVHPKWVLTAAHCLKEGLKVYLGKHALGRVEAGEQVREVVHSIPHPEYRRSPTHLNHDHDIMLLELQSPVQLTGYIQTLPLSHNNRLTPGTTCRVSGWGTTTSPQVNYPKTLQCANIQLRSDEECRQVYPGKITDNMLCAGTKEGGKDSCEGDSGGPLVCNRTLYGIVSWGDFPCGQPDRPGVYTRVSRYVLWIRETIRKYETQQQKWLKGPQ

[20] = target: Plasma Kallikrein (Homo sapiens, UniProt P03952); test: Protease profiling panel, 10-dose IC50; format: biochemical
[21] = target: Matriptase 2 (Homo sapiens, UniProt Q8IU80); test: Protease profiling panel, 10-dose IC50; format: biochemical; conditions: values lower than 1.02E-09 M estimated from best curve
[22] = target: Kallikrein 5 (Homo sapiens, UniProt Q9Y337); test: Protease profiling panel, 10-dose IC50; format: biochemical
Kallikrein 5, sequence (Q9Y337 23-293, species assumed): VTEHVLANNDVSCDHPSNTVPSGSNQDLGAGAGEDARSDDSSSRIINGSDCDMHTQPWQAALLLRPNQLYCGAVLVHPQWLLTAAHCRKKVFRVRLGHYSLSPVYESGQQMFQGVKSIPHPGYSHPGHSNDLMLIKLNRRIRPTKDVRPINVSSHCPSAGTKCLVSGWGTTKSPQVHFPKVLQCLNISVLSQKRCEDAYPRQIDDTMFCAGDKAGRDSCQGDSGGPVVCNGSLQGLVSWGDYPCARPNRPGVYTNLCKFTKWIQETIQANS

[23] = target: FXa (Homo sapiens, UniProt P00742); test: Protease profiling panel, 10-dose IC50; format: biochemical
FXa, sequence (P00742 235-488 limits assumed): as the sequence (P00742 235-488 limits assumed) above
FXa, sequence (P00742 41-179 partner limits assumed): as the sequence (P00742 41-179 partner limits assumed) above

[24] = target: Urokinase (Homo sapiens, UniProt P00749); test: Protease profiling panel, 10-dose IC50; format: biochemical
[25] = target: Tryptase g1 (Homo sapiens, UniProt Q9NRR2); test: Protease profiling panel, 10-dose IC50; format: biochemical; conditions: values lower than 1.02E-09 M estimated from best curve
[26] = target: Plasmin (Homo sapiens, UniProt P00747); test: Protease profiling panel, 10-dose IC50; format: biochemical
[27] = target: Kallikrein 14 (Homo sapiens, UniProt Q9P0G3); test: Protease profiling panel, 10-dose IC50; format: biochemical
[28] = target: Trypsin (Bos taurus, UniProt P00760); test: Protease profiling panel, 10-dose IC50; format: biochemical; conditions: values lower than 1.02E-09 M estimated from best curve
Trypsin, sequence (P00760 24-246): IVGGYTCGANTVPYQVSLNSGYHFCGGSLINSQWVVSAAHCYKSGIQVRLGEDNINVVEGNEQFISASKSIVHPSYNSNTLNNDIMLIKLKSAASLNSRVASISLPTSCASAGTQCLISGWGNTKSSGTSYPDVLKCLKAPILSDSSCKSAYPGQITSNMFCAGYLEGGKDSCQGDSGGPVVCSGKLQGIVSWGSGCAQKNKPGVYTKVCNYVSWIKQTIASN

[29] = target: Kallikrein 7 (Homo sapiens, UniProt P49862); test: Protease profiling panel, 10-dose IC50; format: biochemical
Kallikrein 7, sequence (P49862 30-253, species assumed): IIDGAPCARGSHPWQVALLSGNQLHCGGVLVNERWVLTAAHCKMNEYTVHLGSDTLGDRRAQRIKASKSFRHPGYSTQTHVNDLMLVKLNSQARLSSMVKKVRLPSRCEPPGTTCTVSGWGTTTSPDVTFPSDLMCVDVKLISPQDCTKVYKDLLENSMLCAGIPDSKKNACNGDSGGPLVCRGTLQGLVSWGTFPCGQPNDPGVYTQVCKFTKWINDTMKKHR

[30] = target: Tryptase b2 (Homo sapiens, UniProt P20231); test: Protease profiling panel, 10-dose IC50; format: biochemical; conditions: values lower than 1.02E-09 M estimated from best curve
Tryptase b2, sequence (P20231 31-275): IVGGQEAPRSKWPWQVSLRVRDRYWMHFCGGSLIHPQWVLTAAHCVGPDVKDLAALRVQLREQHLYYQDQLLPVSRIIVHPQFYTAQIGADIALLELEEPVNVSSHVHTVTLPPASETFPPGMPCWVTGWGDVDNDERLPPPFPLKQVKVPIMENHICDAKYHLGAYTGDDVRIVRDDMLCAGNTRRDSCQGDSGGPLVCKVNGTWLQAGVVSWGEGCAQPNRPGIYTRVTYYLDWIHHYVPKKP

[31] = target: Caspase 2 (Homo sapiens, UniProt P42575); test: Protease profiling panel, 10-dose IC50; format: biochemical
[32] = target: Caspase 9 (Homo sapiens, UniProt P55211); test: Protease profiling panel, 10-dose IC50; format: biochemical
Caspase 9, sequence (P55211 whole entry, species assumed): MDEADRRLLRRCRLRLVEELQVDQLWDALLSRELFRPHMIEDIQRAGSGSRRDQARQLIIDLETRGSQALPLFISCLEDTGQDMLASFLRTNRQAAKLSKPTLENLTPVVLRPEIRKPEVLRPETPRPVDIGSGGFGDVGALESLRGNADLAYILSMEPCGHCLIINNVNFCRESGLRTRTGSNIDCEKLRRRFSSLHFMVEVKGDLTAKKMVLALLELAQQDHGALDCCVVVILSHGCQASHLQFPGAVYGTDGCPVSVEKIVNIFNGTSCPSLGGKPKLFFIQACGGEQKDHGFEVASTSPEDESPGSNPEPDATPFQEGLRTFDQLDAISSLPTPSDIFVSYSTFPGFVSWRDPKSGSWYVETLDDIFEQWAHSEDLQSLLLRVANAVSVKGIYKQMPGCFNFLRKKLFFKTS

[33] = target: Caspase 11 (Mus musculus, UniProt P70343); test: Protease profiling panel, 10-dose IC50; format: biochemical
[34] = target: Caspase 4 (Homo sapiens, UniProt P49662); test: Protease profiling panel, 10-dose IC50; format: biochemical
[35] = target: Caspase 5 (Homo sapiens, UniProt P51878); test: Protease profiling panel, 10-dose IC50; format: biochemical
[36] = target: Caspase 10 (Homo sapiens, UniProt Q92851); test: Protease profiling panel, 10-dose IC50; format: biochemical
[37] = target: Caspase 8 (Homo sapiens, UniProt Q14790); test: Protease profiling panel, 10-dose IC50; format: biochemical
[38] = target: Caspase 1 (Homo sapiens, UniProt P29466); test: Protease profiling panel, 10-dose IC50; format: biochemical
[39] = target: Kallikrein 1 (Homo sapiens, UniProt P06870); test: Protease profiling panel, 10-dose IC50; format: biochemical
[40] = target: Proteinase A; format: biochemical
[41] = tested on: wild-type SARS-CoV-2; test: microbe, parasite or virus in culture; format: cell-based; conditions: Severe acute respiratory syndrome coronavirus 2, Calu-3, 72 h, read-out: SARS-CoV-2 Wild-type Calu-3 IC50 (nM)
[42] = target: TMPRSS2 protease domain (Homo sapiens, UniProt O15393); format: biochemical
TMPRSS2 protease domain, sequence (O15393 256-492): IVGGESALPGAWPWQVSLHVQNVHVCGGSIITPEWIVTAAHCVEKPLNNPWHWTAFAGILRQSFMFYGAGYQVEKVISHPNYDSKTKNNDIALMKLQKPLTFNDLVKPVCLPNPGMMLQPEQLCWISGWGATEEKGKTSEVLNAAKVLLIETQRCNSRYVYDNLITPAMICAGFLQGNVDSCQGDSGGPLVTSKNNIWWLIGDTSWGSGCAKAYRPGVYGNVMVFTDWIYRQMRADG

Hepsin, sequence (P05981 whole entry): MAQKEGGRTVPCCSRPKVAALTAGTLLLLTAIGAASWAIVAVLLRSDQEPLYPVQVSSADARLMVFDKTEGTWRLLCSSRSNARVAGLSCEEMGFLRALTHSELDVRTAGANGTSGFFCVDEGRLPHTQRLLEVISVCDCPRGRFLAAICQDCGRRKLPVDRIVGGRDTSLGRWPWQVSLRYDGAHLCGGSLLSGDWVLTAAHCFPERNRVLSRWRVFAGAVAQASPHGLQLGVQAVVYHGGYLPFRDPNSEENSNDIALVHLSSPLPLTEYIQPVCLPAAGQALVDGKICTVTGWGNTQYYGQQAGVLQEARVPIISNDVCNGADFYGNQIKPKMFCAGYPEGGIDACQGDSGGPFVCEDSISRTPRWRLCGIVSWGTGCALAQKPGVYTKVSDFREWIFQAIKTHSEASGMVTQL

Molecule	IC50 [1] [nM]	IC50 [2] [nM]	IC50 [3] [nM]	IC50 [4] [nM]	IC50 [5] [nM]	further results
CC(=O)NC(CO)C(=O)NC(CCCCN)C(=O)NC(CC(C)C)C(=O)NC(CCCNC(=N)N)C(=O)c1nc2ccccc2s1 (centres unmarked) [Compound 3, Ac-SKLR-kbt]	0.32	66	> 20000	6.1	3800	
CC(=O)N[C@@H](Cc1c[nH]c2ccccc12)C(=O)N[C@@H](Cc1ccccc1)C(=O)N[C@@H](CCCNC(=N)N)C(=O)c1nc2ccccc2s1 [Compound 8, Ac-WFR-kbt]	7.6	329	> 20000	5.7	22	
CC(=O)N[C@@H](CO)C(=O)N[C@@H](CCCCN)C(=O)N[C@@H](Cc1ccccc1)C(=O)N[C@@H](CCCNC(=N)N)C(=O)c1nccs1 [Compound 9, Ac-SKFR-kt]	17	114	> 20000	6.1	1060	
CC(=O)N[C@@H](CCCCN)C(=O)N[C@@H](CCC(N)=O)C(=O)N[C@@H](Cc1ccccc1)C(=O)N[C@@H](CCCNC(=N)N)C(=O)c1nccs1 [Compound 10, Ac-KQFR-kt]	1.2	116	> 20000	1.4	158	
CC(=O)N[C@@H](CO)C(=O)N[C@@H](CCC(N)=O)C(=O)N[C@@H](CC(C)C)C(=O)N[C@@H](CCCNC(=N)N)C(=O)c1nccs1 [Compound 11, Ac-SQLR-kt]	0.68	364		18		
CC(=O)N[C@@H](Cc1ccccc1)C(=O)N[C@@H](CC(C)C)C(=O)N[C@@H](Cc1ccccc1)C(=O)N[C@@H](CCCNC(=N)N)C(=O)c1nc2ccccc2s1 [Compound 12, Ac-FLFR-kbt]	2.9	228	> 20000	7.2	26	
CC(=O)N[C@H](Cc1c[nH]c2ccccc12)C(=O)N[C@@H](Cc1ccccc1)C(=O)N[C@@H](CCCNC(=N)N)C(=O)c1nc2ccccc2s1 [Compound 13, Ac-dWFR-kbt]	1.1	27	3700	2.6	98	EC50 [6]: 32 nM
CC(=O)N[C@@H](CC(C)C)C(=O)N[C@@H](CC(C)C)C(=O)N[C@@H](CCCNC(=N)N)C(=O)c1nccs1 [Compound 18, Ac-LLR-kt]	4.6	506		56		EC50 [6]: 349 nM
CC(C)C[C@H](NC(=O)[C@H]1O[C@@H]1C(=O)O)C(=O)NCCCCN=C(N)N [Compound E64, E64]						IC50 [7]: 12.4 nM; IC50 [8]: 1.73 nM; IC50 [9]: 35.6 nM; IC50 [10]: 7.33 nM; IC50 [11]: 0.24 nM; IC50 [12]: 1180 nM; IC50 [13]: 47.1 nM; IC50 [14]: 3.89 nM
CC(=O)N[C@@H](CC(=O)O)C(=O)N[C@@H](CCC(=O)O)C(=O)N[C@H](C(=O)N[C@H](C=O)CC(=O)O)C(C)C [DEVD-CHO]						IC50 [15]: 2.31 nM; IC50 [16]: 12.4 nM
CCOC(=O)c1ccc(OC(=O)CCCCCN=C(N)N)cc1 [Gabexate mesylate]						IC50 [17]: 1570 nM; IC50 [18]: 94.3 nM; IC50 [19]: 12200 nM; IC50 [20]: 148 nM; IC50 [21]: 391 nM; IC50 [22]: 4940 nM; IC50 [23]: 1860 nM; IC50 [24]: 24.4 nM; IC50 [25]: 13.3 nM; IC50 [26]: 265 nM; IC50 [27]: 651 nM; IC50 [28]: 30.7 nM; IC50 [29]: 43100 nM; IC50 [30]: 9.7 nM
CC[C@H](C)[C@H](NC(C)=O)C(=O)N[C@@H](CCC(=O)O)C(=O)N[C@H](C(=O)N[C@H](C=O)CC(=O)O)[C@@H](C)O [IETD-CHO] (Ac-IETD-aldehyde)						IC50 [31]: 547 nM; IC50 [32]: 26.4 nM; IC50 [33]: 567 nM; IC50 [34]: 2130 nM; IC50 [35]: 11.5 nM; IC50 [36]: 9.17 nM; IC50 [37]: 2.83 nM; IC50 [38]: 29.2 nM
CC(=O)N[C@@H](CC(C)C)C(=O)N[C@@H](CC(C)C)C(=O)N[C@H](C=O)CCCNC(=N)N [Leupeptin]						IC50 [39]: 4610 nM; IC50 [40]: 244000 nM
N=C(N)c1ccc2cc(OC(=O)c3ccc(N=C(N)N)cc3)ccc2c1 [Nafamostat, reference compound]	0.9	158	5020		4570	IC50 [41]: 220 nM
CCC(CC)COC(=O)[C@H](C)N[P@](=O)(OC[C@H]1O[C@@](C#N)(c2ccc3c(N)ncnn23)[C@H](O)[C@@H]1O)Oc1ccccc1 [Remdesivir]						IC50 [41]: 1270 nM
(MCA)-K-KARSAFA-K-(DnP)						Km [42]: 0.6 ± 0.05 µM; kcat [42]: 0.07 s⁻¹
Cyclo(DMK)R-kbt [Compound 19]	5.9	3240	18500	1	1390	EC50 [6]: 119 nM
Cyclo(DQK)R-kbt [Compound 20]	22	16100	> 20000	7.7	> 20000	EC50 [6]: 138 nM
Cyclo(allylGLY)R-kbt [Compound 21]	20	> 20000	> 20000	14	8810	EC50 [6]: 565 nM
